Laboratory results reported in PubChem BioAssay (NCI).
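Cells were grown in 96-well plates and exposed to each compound for 48 hours at five concentrations; endpoints were interpolated linearly between bracketing concentrations, or set to the highest concentration if not reached. GI50 is the concentration that inhibits growth by half. TGI is the concentration that stops growth completely.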

How the values were obtained:
Experiment in all cases: NCI tumour cell line growth inhibition, 48 h
CAKI-1 renal = test system: CAKI-1 renal
KM12 colon = test system: KM12 colon
MALME-3M melanoma = test system: MALME-3M melanoma
MDA-MB-231 breast = test system: MDA-MB-231 breast
MOLT-4 leukemia = test system: MOLT-4 leukemia
NCI/ADR-RES ovarian = test system: NCI/ADR-RES ovarian
SK-MEL-2 melanoma = test system: SK-MEL-2 melanoma
TK-10 renal = test system: TK-10 renal
UACC-257 melanoma = test system: UACC-257 melanoma
UACC-62 melanoma = test system: UACC-62 melanoma

Row | SMILES | GI50 (CAKI-1 renal) [µM] | TGI (CAKI-1 renal) [µM] | GI50 (KM12 colon) [µM] | TGI (KM12 colon) [µM] | GI50 (MALME-3M melanoma) [µM] | TGI (MALME-3M melanoma) [µM] | GI50 (MDA-MB-231 breast) [µM] | TGI (MDA-MB-231 breast) [µM] | GI50 (MOLT-4 leukemia) [µM] | TGI (MOLT-4 leukemia) [µM] | GI50 (NCI/ADR-RES ovarian) [µM] | TGI (NCI/ADR-RES ovarian) [µM] | GI50 (SK-MEL-2 melanoma) [µM] | TGI (SK-MEL-2 melanoma) [µM] | GI50 (TK-10 renal) [µM] | TGI (TK-10 renal) [µM] | GI50 (UACC-257 melanoma) [µM] | TGI (UACC-257 melanoma) [µM] | GI50 (UACC-62 melanoma) [µM] | TGI (UACC-62 melanoma) [µM]
1 | COc1cc(/C=C/C(=O)c2cccc(-n3cc(-c4ccccc4)[nH]c3=O)c2)cc(OC)c1OC | 1.75 | 4.57 | 1.37 | 2.66 | 1.31 | 3.56 | 2.17 | 6.18 | 1.8 | > 100 | 1.09 | 4.58 | 2.06 | 4.98 | 3.02 | 9.35 | 1.52 | 3.17 | 1.52 | 2.98
2 | O=[N+]([O-])c1ccc(C2=NCCO2)cc1 | > 100 | > 100 | > 100 | > 100 | > 100 | > 100 | > 100 | > 100 | > 100 | > 100 | > 100 | > 100 | > 100 | > 100 | > 100 | > 100 | > 100 | > 100 | > 100 | > 100
3 | CNC(=O)Oc1cc(C(C)C)ccc1Sc1ccc(C(C)C)cc1OC(=O)NC | 3.34 | 17.1 | 5.78 | 18.9 | 4.75 | 20.5 | 5.48 | 19.4 | 2.96 | 20.1 | 3.9 | 18.6 | 4.21 | 17.3 | 14 | 30.3 | 5.81 | 20.3 | 4.24 | 16.5
4 | COC(=O)[C@@H](C)C[C@H](Cc1ccccc1)NC(=O)c1nc([C@@H](C[C@H](C(C)C)N(C)C(=O)[C@@H](NC(=O)[C@H]2C[C@H](O)CCN2C)C(C)C)OC(C)=O)sc1C(C)C | 0.115 | > 9.69 | 0.00473 | > 3.95 | 0.00537 | > 11.1 | 0.0067 | 0.458 | 0.0117 | > 11.1 | 2.29 | > 11.1 | 0.00318 | > 11.1 | 0.319 | > 11.1 | 5.89 | > 11.1 | 0.00243 | > 11.1
5 | C/C(=C\C(=O)O[C@H]1[C@@H]2[C@H](C)CC[C@H]2[C@]2(C)O[C@@]1(C1CCCCC1)C[C@H]2OC(=O)CO)c1ccccc1 | 0.0235 | 5.01 | 6.44 | 13 | 7.25 | 13.5 | 6.67 | 13 | 6.42 | 13.6 | 0.348 | 7.49 | 7.05 | 13.4 | 7.6 | 14.7 | 6.96 | 13.3 | 6.62 | 12.4
6 | O=C(NCc1cn(Cc2cccc(Oc3ccccc3)c2)nn1)c1cccnc1Nc1ccc(F)cc1 | 64.2 | > 100 | 5.61 | > 100 | 15.1 | > 100 | 14.5 | > 100 | > 100 | > 100 | 14 | > 100 | 34.2 | > 100 | 24.5 | > 100 | 6.87 | > 100 | 6.51 | > 100
7 | Cn1cc(C2=C(c3ccsc3)C(=O)NC2=O)c2ccccc21 | > 25 | > 25 | > 25 | > 25 | > 25 | > 25 | > 25 | > 25 | > 25 | > 25 | > 25 | > 25 | > 25 | > 25 | > 25 | > 25 | > 25 | > 25 | > 25 | > 25
8 | Nc1c(C(=O)Nc2cccc(Cl)c2)sc2nc3c(cc12)C(=O)CCC3 | 0.438 | > 100 | 0.298 | > 100 | 0.498 | > 100 | 1.88 | > 100 | > 100 | > 100 | 0.466 | > 100 | 0.488 | > 100 | 36.7 | > 100 | > 100 | > 100 | 0.349 | > 100
9 | C[N+]1([O-])C2CCC1CC(OC(=O)C(CO)c1ccccc1)C2 (stereo not given) | – | > 100 | – | > 100 | – | > 100 | – | > 100 | – | > 100 | – | > 100 | – | > 100 | – | > 100 | – | > 100 | – | > 100
10 | CN(C)CCNC(=O)c1cc2c3cc(Cl)ccc3[nH]c2c2ncccc12 | 3.52 | 19.6 | 3.03 | 13.7 | 1.89 | 3.94 | 1.98 | 9.77 | 1.54 | 4.27 | 5.4 | 20.8 | 4.2 | 20.1 | 3.81 | 13.4 | 3.92 | 14.9 | 1.94 | 3.77
11 | Cc1cc(I)cc(CNCCN(C)C)c1O | 50.1 | > 100 | > 100 | > 100 | > 87.8 | > 100 | > 59.5 | > 100 | 44.6 | > 100 | > 84.5 | > 100 | > 77.2 | > 100 | > 91.6 | > 100 | > 62.5 | > 100 | 19.7 | 39.2
